Assay results published in publication PMC10006169, “A phase I trial of LXS196, a protein kinase C (PKC) inhibitor, for metastatic uveal melanoma” (British Journal of Cancer, 2023).
“And” between values parts separate entries of the source, which are not always exact repeats. Equal entries are not always repeated.

Experiments:
dog = system: dog; set-up: method as in ref 20 = [20]; 20. IDEAYA Biosciences. IDE196 (LXS196, Darovasertib) investigator’s brochure. IDEAYA Biosciences; 2022.; conditions: cited from earlier work
[1] = system: metastatic uveal melanoma (MUM); assay: Tumour response (RECIST v1.1) and progression-free survival; format: in vivo, human
Protocol: Tumour response was assessed locally by computed tomography (CT) and/or magnetic resonance imaging (MRI) of the chest, abdomen and pelvis, according to Response Evaluation Criteria in Solid Tumours (RECIST) v1.1 at baseline, on C3D1 and every two cycles thereafter until cycle 11. After 11 cycles of treatment, response was evaluated every three cycles until the end of treatment. Fresh metastatic tumour biopsies were collected at baseline (prior to first dose) and on treatment at C1D15 to evaluate the modulation of PKC substrate proteins in tumours following exposure to LXS196 and to perform exploratory transcriptome and targeted DNA sequencing. Whole blood samples (peripheral blood mononuclear cells; PBMCs) were collected pre-dose on C1D1 and D15, and at various time points post-dose on C1D1, D2, D3, D15 and D16 to evaluate the modulation of PKC substrate proteins in a surrogate tissue. Owing to the exploratory nature of this phase I study, formal statistical tests were not planned to be performed. Data are presented using descriptive statistics and visualisations. Continuous variables are described with the mean and range. Categorical variables are described using counts and percentages. PFS is described using the Kaplan–Meier (KM) method.

## CC1(N)CCN(c2cccnc2NC(=O)c2nc(-c3ncccc3C(F)(F)F)cnc2N)CC1 [LXS196]
dog; 4-week recovery phase
  Reversibility of findings: partial to complete reversibility
dog; 4-week toxicology study, dog
  Potential target organ: GI tract
dog; single-dose and 4-week repeated dose, dog
  Potential toxicity: decrease in systolic blood pressure
[1]; 300 mg BID (RDE) n=18
  BOR: complete response (CR): 0 n (%)
  BOR: partial response (PR): 2 (11.1%) n (%) and 2 (11.1) n (%)
  BOR: progressive disease (PD): 3 (16.7) n (%)
  BOR: unknown: 1 (5.6) n (%)
  Kaplan–Meier PFS rate (95% CI) at 4 months: 44.4 (21.6–65.1) %
  Kaplan–Meier PFS rate (95% CI) at 6 months: 27.8 (10.1–48.9) %
  Kaplan–Meier PFS rate (95% CI) at 12 months: 22.2 (6.9–42.9) %
  Number of PFS events: 18 (100) n (%)
  PFS 25th percentile (95% CI): 2.1 (0.8–3.6) months
  PFS 50th percentile, median PFS (95% CI): 3.7 (2.1–5.4) months
  PFS 75th percentile (95% CI): 7.2 (3.7–25.8) months
  PFS events: deaths: 1 (5.6) n (%)
  PFS events: progression: 17 (94.4) n (%)
[1]; All BID n=30
  BOR: complete response (CR): 1 n (%) and 1 (3.3) n (%)
  BOR: partial response (PR): 3 n (%) and 3 (10.0) n (%)
  BOR: progressive disease (PD): 6 (20.0) n (%)
  BOR: unknown: 2 (6.7) n (%)
  Kaplan–Meier PFS rate (95% CI) at 4 months: 50.0 (31.3–66.1) %
  Kaplan–Meier PFS rate (95% CI) at 6 months: 33.3 (17.5–50.0) %
  Kaplan–Meier PFS rate (95% CI) at 12 months: 26.7 (12.6–43.0) %
  Number of PFS events: 30 (100) n (%)
  Overall response rate (ORR: CR + PR): 4 (13.3%) n (%) [95% CI]
  PFS 25th percentile (95% CI): 1.9 (1.6–3.6) months
  PFS 50th percentile, median PFS (95% CI): 4.1 (3.5–7.2) months
  PFS 75th percentile (95% CI): 12.9 (5.4–25.8) months
  PFS events: deaths: 2 (6.7) n (%)
  PFS events: progression: 28 (93.3) n (%)
[1]; All QD n=38
  BOR: complete response (CR): 0 n (%)
  BOR: partial response (PR): 2 n (%) and 2 (5.3) n (%)
  BOR: progressive disease (PD): 9 (23.7) n (%)
  BOR: unknown: 0 n (%)
  Kaplan–Meier PFS rate (95% CI) at 4 months: 36.8 (22.0–51.8) %
  Kaplan–Meier PFS rate (95% CI) at 6 months: 26.3 (13.7–40.8) %
  Kaplan–Meier PFS rate (95% CI) at 12 months: 0.0 (NE–NE) %
  Number of PFS events: 38 (100.0) n (%)
  PFS 25th percentile (95% CI): 3.4 (1.7–3.5) months
  PFS 50th percentile, median PFS (95% CI): 3.5 (3.5–5.4) months
  PFS 75th percentile (95% CI): 6.0 (3.6–7.3) months
  PFS events: deaths: 0 (0.0) n (%)
  PFS events: progression: 38 (100.0) n (%)
[1]; All patients N=68
  BOR: complete response (CR): 1 (1.5) n (%)
  BOR: partial response (PR): 5 n (%) and 5 (7.4) n (%)
  BOR: progressive disease (PD): 15 (22.1) n (%)
  BOR: unknown: 2 (2.9) n (%)
  Kaplan–Meier PFS rate (95% CI) at 4 months: 42.6 (30.8–54.0) %
  Kaplan–Meier PFS rate (95% CI) at 6 months: 29.4%
  Kaplan–Meier PFS rate (95% CI) at 12 months: 11.8 (5.5–20.6) %
  Number of PFS events: 68 (100) n (%)
  Overall response rate (ORR: CR + PR): 8.8 n (%) [95% CI]
  PFS 25th percentile (95% CI): 2.0 (1.7–3.5) months
  PFS 50th percentile, median PFS (95% CI): 3.6 (3.5–5.4) months
  PFS 75th percentile (95% CI): 7.2 (5.4–9.4) months
  PFS events: deaths: 2 n (%) and 2 (2.9) n (%)
  PFS events: progression: 66 n (%) and 66 (97.1) n (%)
[1]; RECIST v1.1, all doses
  Stable disease (SD) in evaluable patients: 45/66
[1]; n=45, range 2.07–30.23
  Median duration of SD: 5.32 months
[1]; patients with RECIST response n=6, range 2.99–41.95
  Median duration of response: 10.15 months and 10 months
